Here are results for two compounds from patent publication US5232917A, “Methods, compositions, and compounds for allosteric modulation of the GABA receptor by members of the androstane and pregnane series” (priority 1991, dated 1993).

The subject of one series is locomotor activity. The series is described as follows: Locomotor activity in habituated mice. It counts as in vivo, mice (male N.I.H. Swiss-Webster). The method, then: For evaluation of a drug's effects on general activity, mice were first habituated to the open-field apparatus for 15 min. The following day, mice were pretreated with a test drug and placed in the center of the activity chambers. The total distance traveled was measured for 10 min.
The vehicle control data were analyzed across test days using an 1-way analysis of variance (ANOVA). […] The dose-response curves were then analyzed using an 1-way ANOVA, followed by Dunnett's t-test for individual comparisons between doses and control. The open-field and habituated locomotor data were analyzed using ANOVA followed by Dunnett's t-test. […] All data is expressed as the mean±S.E.M.

Series [1] relates to strychnine-induced convulsions. The conditions noted are these: dissolved in DMSO; Belelli et al., 1989; cited from earlier work.
In series [2] the test system is picrotoxin-induced convulsions. To be noted: dissolved in DMSO; Belelli et al., 1989; cited from earlier work.
For series [3], the system named is GABA receptor-chloride ionophore complex (GR complex). The series can be described thus: Dissociation kinetics of [35S]TBPS in rat cerebral cortical membranes. It is filed as binding. The conditions noted are these: alphaxalone 300 nM, 3α-OH-DHP 20 nM.
Series [4] concerns GABA receptor complex (36Cl uptake, cerebral cortical synaptoneurosomes). The series can be described thus: GABA-stimulated 36Cl uptake in rat cerebral cortical synaptoneurosomes. It counts as biochemical, rat (male Sprague-Dawley).
In series [5] the test system is sedative potential (rotorod). The conditions noted are these: dissolved in DMSO; Belelli et al., 1989; cited from earlier work.
For another series, the target named is T1, progesterone receptor (Bos taurus, UniProt F1N712).
T1 construct: from tissue; host or cells: bovine uterus cytosol
T1 sequence (F1N712 1-914): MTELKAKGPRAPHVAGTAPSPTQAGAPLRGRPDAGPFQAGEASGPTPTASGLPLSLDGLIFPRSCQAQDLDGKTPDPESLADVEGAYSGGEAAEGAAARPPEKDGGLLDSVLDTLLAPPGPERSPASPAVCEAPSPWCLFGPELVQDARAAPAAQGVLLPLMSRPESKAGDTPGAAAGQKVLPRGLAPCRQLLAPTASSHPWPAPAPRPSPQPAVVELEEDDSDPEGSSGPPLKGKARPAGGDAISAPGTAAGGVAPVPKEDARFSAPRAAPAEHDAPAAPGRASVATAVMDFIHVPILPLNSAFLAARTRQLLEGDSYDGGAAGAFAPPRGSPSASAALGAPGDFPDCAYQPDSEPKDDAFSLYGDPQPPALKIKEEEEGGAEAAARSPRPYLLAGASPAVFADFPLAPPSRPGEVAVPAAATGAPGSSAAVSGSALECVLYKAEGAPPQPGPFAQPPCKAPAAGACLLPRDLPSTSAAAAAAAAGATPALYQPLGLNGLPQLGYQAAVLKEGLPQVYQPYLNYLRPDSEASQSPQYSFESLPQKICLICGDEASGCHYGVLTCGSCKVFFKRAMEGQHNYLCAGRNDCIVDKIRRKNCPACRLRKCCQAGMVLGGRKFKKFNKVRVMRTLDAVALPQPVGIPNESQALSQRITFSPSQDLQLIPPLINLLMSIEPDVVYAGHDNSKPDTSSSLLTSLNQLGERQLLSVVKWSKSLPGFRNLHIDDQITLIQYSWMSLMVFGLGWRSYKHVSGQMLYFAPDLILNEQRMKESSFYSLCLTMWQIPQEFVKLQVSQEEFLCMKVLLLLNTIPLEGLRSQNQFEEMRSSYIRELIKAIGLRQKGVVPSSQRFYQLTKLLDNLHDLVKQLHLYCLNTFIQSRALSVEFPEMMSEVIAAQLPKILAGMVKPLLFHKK
The series is described as follows: Inhibition of 3H-progesterone binding to bovine uteral progesterone receptors. Summed up: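 Bovine uterine cytosol served as the progesterone receptor source. Compounds were scored by their inhibition of ^3H-progesterone binding.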

Series [6] relates to maximal electroshock seizure. To be noted: dissolved in DMSO; Belelli et al., 1989; cited from earlier work.
The mark [7] stands for this setting: Na pentobarbital 30 μM, 2 nM [35S]TBPS.
Setting [8] is: read-out: % of inhibition of 3H-progesterone binding, A, competitor 10^-5 M, 0.15 nM 3H-progesterone.
Where [9] appears, read: read-out: % of inhibition of 3H-progesterone binding, A, competitor 10^-6 M, 0.15 nM 3H-progesterone.
[10] abbreviates: read-out: % of inhibition of 3H-progesterone binding, B, competitor 10^-5 M, 0.25 nM 3H-progesterone.
Setting [11] is: read-out: % of inhibition of 3H-progesterone binding, B, competitor 10^-6 M, 0.25 nM 3H-progesterone.

Where two headings read alike, the source gives them in different places.

`CC(=O)[C@H]1CC[C@H]2[C@@H]3CC[C@H]4C[C@H](O)CC[C@]4(C)[C@H]3CC[C@]12C` [Example 3α-OH-DHP, 3α-hydroxy-5α-pregnan-20-one]: in the series on locomotor activity (3α-OH-DHP 20 mg/kg, controls 2061.2±157.7 cm, p<0.01), the “total distance traveled, acclimated mice” value came to 5694.7±608.4 cm. Further, the “effect on locomotor activity” value with locomotor activity (acclimated mice) was “significant increase in locomotor activity”. In addition, the “ED50 STR (strychnine)” value in series [1] is over 300 mg/kg. Besides, in series [2], the “ED50 PICRO (picrotoxin)” value is 31.7 ± 1.1 mg/kg. Moreover, in series [3] (Na pentobarbital 30 μM), the “Total percentage of specific sites, rapid (R)” value was determined as 35 ± 3% and the “Total percentage of specific sites, slow (S)” value was 68 ± 3%. Also, in series [3] (setting [7]), the “K-1, slowly dissociating component (S)” value was 0.011 ± 0.002 min⁻¹; the “T1/2, rapidly dissociating component (R)” value came out at 6.4 ± 1 min; the “T1/2, slowly dissociating component (S)” value is 76 ± 11 min. Further, in series [3] (pentobarbital 30 μM, FIGS. 2A, 2B), the “biphasic dissociation mechanism of [35S]TBPS” value is listed as “absent”. Further, the “enhancement of GABA-stimulated 36Cl uptake above GABA alone” value in series [4] (3α-OH-DHP 500 nM alone, GABA 25 μM, FIG. 4) worked out at 60%. In addition, the “% enhancement of basal 36Cl uptake” value in series [4] (GABA (25 μM) + 3α-OH-DHP (500 nM)) is listed as 194 ± 8%. The “effect on basal 36Cl uptake” value in series [4] (steroid alone, no GABA) is listed as “no effect”. In series [5], the “ED50 RR (Rotorod)” value is 40 to 100 mg/kg. Moreover, the inhibition at 10 µM on progesterone receptor (setting [8]) worked out at 41%. Further, on progesterone receptor (setting [9]), the inhibition at 1 µM was determined as 14%. The inhibition at 10 µM on progesterone receptor (setting [10]) was determined as 40%. The inhibition at 1 µM on progesterone receptor (setting [11]) stood at 2%. In addition, the “ED50 MES (maximal electroshock)” value in series [6] was over 300 mg/kg.

Take `C[C@]12CC[C@@H](O)C[C@@H]1CC[C@@H]1[C@@H]2CC[C@]2(C)[C@@H](C(=O)CO)CC[C@@H]12` [Example 5α-THDOC, 3α,21-dihydroxy-5α-pregnan-20-one]: the values for the inhibition at 10 µM at progesterone receptor (setting [8]) and on progesterone receptor (setting [10]) were 35% and 28%, respectively. The inhibition at 1 µM on progesterone receptor (setting [9]) was 13%; on progesterone receptor (setting [11]) it was 5%.
